Active and inactive are the calls of the source. The calls are words filed in the database; no cut-off is given here.

From ChEMBL document CHEMBL1140941 (J Med Chem, 2009) come the findings set out here.

The target in data set [1] is T1, Peroxisome proliferator-activated receptor delta (Homo sapiens) (UniProt Q03181).
T1 sequence (whole entry): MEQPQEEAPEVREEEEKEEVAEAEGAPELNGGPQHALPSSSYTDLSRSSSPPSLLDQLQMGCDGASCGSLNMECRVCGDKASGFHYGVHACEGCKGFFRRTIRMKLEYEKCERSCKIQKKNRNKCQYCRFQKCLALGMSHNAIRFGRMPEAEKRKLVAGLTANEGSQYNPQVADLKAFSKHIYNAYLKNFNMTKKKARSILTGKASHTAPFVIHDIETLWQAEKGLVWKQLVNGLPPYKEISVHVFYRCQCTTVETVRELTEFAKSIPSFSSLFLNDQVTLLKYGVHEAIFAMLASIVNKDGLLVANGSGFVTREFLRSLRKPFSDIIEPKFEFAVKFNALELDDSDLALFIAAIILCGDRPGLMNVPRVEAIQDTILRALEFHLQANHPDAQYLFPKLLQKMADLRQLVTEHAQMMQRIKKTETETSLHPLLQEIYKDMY
In words: Agonist activity at PPARdelta expressed in african green monkey CV1 cells co-expressing MH100 up to 10 uM by luciferase reporter gene assay relative to control. The class given is functional, cell-based. As to conditions: CV-1. (A reporter such as luciferase makes a cellular process visible.)

The target of data set [2] is T2, Estrogen receptor (Homo sapiens) (UniProt P03372).
T2 sequence (whole entry): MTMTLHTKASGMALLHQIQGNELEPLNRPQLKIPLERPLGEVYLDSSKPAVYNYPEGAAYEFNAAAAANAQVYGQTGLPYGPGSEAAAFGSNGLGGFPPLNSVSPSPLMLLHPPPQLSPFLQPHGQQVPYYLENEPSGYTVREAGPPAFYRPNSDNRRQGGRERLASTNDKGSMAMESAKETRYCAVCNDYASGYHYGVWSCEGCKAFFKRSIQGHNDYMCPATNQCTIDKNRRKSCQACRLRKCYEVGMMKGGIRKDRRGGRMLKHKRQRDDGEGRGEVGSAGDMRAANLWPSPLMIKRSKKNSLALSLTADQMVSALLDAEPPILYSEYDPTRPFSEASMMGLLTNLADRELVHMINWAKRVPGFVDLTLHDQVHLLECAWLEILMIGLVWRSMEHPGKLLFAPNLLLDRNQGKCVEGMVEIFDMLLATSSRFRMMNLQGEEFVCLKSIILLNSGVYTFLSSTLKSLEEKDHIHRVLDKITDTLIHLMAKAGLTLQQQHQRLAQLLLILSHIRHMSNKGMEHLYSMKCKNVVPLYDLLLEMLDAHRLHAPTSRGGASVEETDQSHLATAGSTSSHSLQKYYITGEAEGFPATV
Briefly: Agonist activity at gal-ERalpha expressed in african green monkey CV1 cells co-expressing MH100 up to 10 uM by luciferase reporter gene assay relative to control. The class given is functional, cell-based. Particulars: CV-1.

Data set [3] addresses T3, Peroxisome proliferator-activated receptor alpha (Homo sapiens) (UniProt Q07869).
T3 sequence (whole entry): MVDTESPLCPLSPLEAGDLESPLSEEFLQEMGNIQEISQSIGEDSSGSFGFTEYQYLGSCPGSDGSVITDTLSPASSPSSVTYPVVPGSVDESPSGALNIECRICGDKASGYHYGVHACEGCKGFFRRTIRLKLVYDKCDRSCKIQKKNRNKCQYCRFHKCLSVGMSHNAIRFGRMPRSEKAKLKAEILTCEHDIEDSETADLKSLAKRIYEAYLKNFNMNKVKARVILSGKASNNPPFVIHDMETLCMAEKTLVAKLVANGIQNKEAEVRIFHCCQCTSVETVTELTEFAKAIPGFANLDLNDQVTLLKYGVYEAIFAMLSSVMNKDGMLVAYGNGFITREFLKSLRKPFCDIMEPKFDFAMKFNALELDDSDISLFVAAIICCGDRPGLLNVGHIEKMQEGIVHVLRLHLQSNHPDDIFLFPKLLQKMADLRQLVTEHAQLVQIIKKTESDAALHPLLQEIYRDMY
Briefly: Antagonist activity at PPARalpha expressed in african green monkey CV1 cells co-expressing MH100 by luciferase reporter gene assay. It counts as functional, cell-based. Particulars: CV-1.

The next data set has as its target Progesterone receptor (Homo sapiens, UniProt P06401). Briefly: Antagonist activity at gal-PR expressed in african green monkey CV1 cells co-expressing MH100 by luciferase reporter gene assay. The class given is functional, cell-based, CV-1.
The target of data set [4] is T4, Glucocorticoid receptor (Homo sapiens) (UniProt P04150).
T4 sequence (whole entry): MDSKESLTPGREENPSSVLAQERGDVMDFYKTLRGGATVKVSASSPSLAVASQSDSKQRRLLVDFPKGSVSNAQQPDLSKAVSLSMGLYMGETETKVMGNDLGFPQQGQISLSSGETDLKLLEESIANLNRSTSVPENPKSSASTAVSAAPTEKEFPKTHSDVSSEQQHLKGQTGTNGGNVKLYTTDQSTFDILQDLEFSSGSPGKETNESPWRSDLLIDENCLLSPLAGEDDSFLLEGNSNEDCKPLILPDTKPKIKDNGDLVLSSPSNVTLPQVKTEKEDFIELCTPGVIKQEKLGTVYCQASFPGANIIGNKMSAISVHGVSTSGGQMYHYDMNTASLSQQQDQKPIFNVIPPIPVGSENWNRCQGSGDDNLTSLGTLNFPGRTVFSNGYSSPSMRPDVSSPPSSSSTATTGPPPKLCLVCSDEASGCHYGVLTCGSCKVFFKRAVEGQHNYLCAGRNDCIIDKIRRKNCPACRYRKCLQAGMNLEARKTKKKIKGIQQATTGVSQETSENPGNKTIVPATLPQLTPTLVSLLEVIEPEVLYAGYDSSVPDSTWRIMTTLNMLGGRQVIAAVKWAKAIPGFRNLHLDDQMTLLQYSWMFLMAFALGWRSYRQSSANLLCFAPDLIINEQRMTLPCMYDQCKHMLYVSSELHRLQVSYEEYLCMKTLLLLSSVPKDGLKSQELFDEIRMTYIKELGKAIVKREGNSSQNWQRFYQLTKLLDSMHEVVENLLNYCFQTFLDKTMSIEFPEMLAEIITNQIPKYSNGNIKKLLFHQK
In words: Antagonist activity at gal-GR expressed in african green monkey CV1 cells co-expressing MH100 at 10 uM by luciferase reporter gene assay. It counts as functional, cell-based. As to conditions: CV-1.

Data set [5] can be described thus: Tmax in CD rat at 3 mg/kg, po. Also noted: dose 3 mg/kg, route oral. It counts as ADME, organism-based. As to conditions: in vivo.
Data set [6] concerns Mus musculus. Briefly: Inhibition of preatherosclerotic lesion in LDLR knockout mouse model at 3 mg/kg, po administered for 6 weeks by en-face analysis. The class given is functional. Also noted: scale not given: the % may be the effect or the level left.
In data set [7] the test system is Mus musculus. Briefly: Inhibition of preatherosclerotic lesion in LDLR knockout mouse model at 1 mg/kg, po administered for 6 weeks by en-face analysis. The class given is functional. Also noted: scale not given: the % may be the effect or the level left.

Chain of Progesterone receptor (P06401 whole entry): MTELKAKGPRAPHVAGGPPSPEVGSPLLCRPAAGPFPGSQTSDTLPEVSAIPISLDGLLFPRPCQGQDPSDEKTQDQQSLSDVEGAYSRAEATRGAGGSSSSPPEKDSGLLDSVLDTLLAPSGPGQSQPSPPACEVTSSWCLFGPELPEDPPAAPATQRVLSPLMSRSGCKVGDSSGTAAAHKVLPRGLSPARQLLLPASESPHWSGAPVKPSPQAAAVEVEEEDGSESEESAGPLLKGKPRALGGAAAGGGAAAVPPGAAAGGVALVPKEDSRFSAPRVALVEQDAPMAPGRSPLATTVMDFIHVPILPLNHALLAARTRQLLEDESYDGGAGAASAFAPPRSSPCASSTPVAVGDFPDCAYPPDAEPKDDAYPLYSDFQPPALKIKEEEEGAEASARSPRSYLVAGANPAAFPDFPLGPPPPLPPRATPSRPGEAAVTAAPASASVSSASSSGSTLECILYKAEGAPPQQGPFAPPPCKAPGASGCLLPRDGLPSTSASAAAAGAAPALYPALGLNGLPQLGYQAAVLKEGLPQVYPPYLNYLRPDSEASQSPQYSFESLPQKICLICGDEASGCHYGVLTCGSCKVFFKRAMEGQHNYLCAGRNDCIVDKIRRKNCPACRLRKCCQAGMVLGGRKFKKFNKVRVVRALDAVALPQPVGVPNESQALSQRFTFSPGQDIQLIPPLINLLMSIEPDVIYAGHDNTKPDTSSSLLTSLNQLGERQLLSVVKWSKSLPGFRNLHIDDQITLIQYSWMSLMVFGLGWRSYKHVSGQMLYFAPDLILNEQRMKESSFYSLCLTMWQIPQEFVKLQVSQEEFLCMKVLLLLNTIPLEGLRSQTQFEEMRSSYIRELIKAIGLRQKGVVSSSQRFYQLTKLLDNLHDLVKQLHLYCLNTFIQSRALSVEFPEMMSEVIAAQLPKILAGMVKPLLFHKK

On to `CC(C)OC(=O)C1=CN(C(=O)c2ccc(F)c(F)c2)CC(C)(C)c2c1[nH]c1ccccc21` [TUROFEXORATE ISOPROPYL], for which the outcome in data set [1], in data set [2] and in data set [3] was inactive. Also, 10 µM corresponded to half-maximal inhibition on Progesterone receptor (IC50). In data set [4], the inhibition (in general, the change of the read-out against control, counted positive when it falls) worked out at 35%. Moreover, in data set [5], the Tmax – broadly, the time from dosing to the highest level – was determined as 10 h. The Activity was found to be 36% with Mus musculus [6] and 18% in the data set on Mus musculus [7].
